Reference: US20150353626A1, “APOLIPOPROTEIN A-I DERIVED PEPTIDES FOR TREATMENT OF HYPERGLYCAEMIA” (priority 2013, published 2015)

Legend:
[1] = test system: L6 myotubes; assay: Glucose uptake in L6 myotubes (2-[3H]-deoxy-D-glucose); assay type: cell-based
Procedure: L6 myoblasts (ATCC #CRL-1458) were grown in α-MEM (Invitrogen) supplemented with 10% FBS (Sigma) and 1% antibiotic/antimycotic (Penicillin, streptomycin, amphotericin B; Invitrogen). Differentiation to myotubes was achieved by switching from growth media to 2% FBS a-MEM for 6-7 or 6-12 days. Cells were maintained at 37° C. and 5% CO2.
Prior to stimulation (or treatment) cells were starved for 2 hours in serum-free a-MEM and all subsequent treatments, which were performed in triplicate and included cytochalasin B (Sigma) as a measure of cell associated non-specific radioactivity, were performed in uptake buffer (140 mmol/l NaCl, 20 mmol/l HEPES, 5 mmol/l KCl, 2.5 mmol/l MgSO4, 1 mmol/l CaCl2, pH 7.4). After stimulation, treatments were replaced with 10 μmol/l 2-deoxy-D-glucose (Sigma), 10 μmol/l 2-[3H]-deoxy-D-glucose (Perkin Elmer) in uptake buffer for 15 mins at room temperature. Cells were then washed twice with ice cold PBS and lysed with 1 mol/l NaOH on ice. Lysates were collected and radioactivity quantified by scintillation counting.
In order to investigate the effect of discodial HDL (rHDL) on GLUT4 translocation and glucose uptake, we produced recombinant human apoA-I and reconstituted HDL needed for cell incubations. L6 myotubes were incubated with 50 μg/ml (1.6 μmol/l) apoA-I for 1 hour followed by a glucose uptake assay as described above. […] Next, L6 myotubes were treated by incubation with 50 μg/ml discodial rHDL (expressed as total concentration of apoA-I in rHDL, given 2 apoA-I molecules per particle) for 1 hour. […] This experiment was thereafter repeated in more controlled manner including cell number and quality (cells were similarly treated during differentiation from myoblasts to multinuclear myotubes, with respect to the time between splitting cells, cell density, passage of cells used.) (FIG. 7c).
The relative effect of specific regions of apoA-I to increase glucose uptake was investigated using truncated protein fragments corresponding to residues 1-189 (N-terminal/central domain), 44-189 (central domain), 44-243 (central/C-terminal domain) and 190-243 (C-terminal domain) of full-length apoA-I (FIG. 4a). The treatments with incubation of truncated protein fragments were performed as described above for treatment of L6 myotubes with full-length apoA-I and followed by a glucose uptake assay as described above.
To test for the contribution of the constituent phospholipid to rHDL-induced glucose uptake in L6 myotubes, rHDL made with DMPC was also produced and compared to 100 nm DMPC vesicles containing no apoA-I protein. Stable 100 nm diameter vesicles can be synthesized with DMPC in the absence of apoA-I and was therefore used as a phospholipid control. The effect on the glucose uptake was tested as described above. […] To also test for the contribution of the constituent POPC phospholipid to rHDL-induced glucose uptake, rHDL made with POPC was compared with 100 nm POPC vesicles containing no apoA-I protein.

[2] = Circular dichroism spectroscopy, alpha-helical content; assay type: physicochemical; conditions: 0.2 mg/ml in PBS pH 7.4, 25° C.
Procedure: CD measurements were performed on a Jasco J-810 spectropolarimeter equipped with a Jasco CDF-4265 Peltier set to 25° C. ApoA-I (full-length and the 190-234 polypeptide fragment) was diluted to 0.2 mg/ml in PBS (final concentration was 25 mmol/l phosphate, 25 mmol/l NaCl, pH 7.4), placed in a 0.1 mm quartz cuvette and, after extensive purging with nitrogen, scanned in the region 200 to 260 nm (scan speed was 20 nm/min). Averages of five scans were baseline-subtracted (PBS; 25 mmol/l phosphate, 25 mmol/l NaCl) and the alpha-helical content was calculated from the molar ellipticity at 222 nm as previously described (Petrlova et al. (2012) J Lipid Res 53: 390-398).

[3] = test system: insulin resistant C57Bl/6 mice; assay: Glucose tolerance test in high-fat diet fed (HFD) mice; assay type: in vivo, mouse
Procedure: Male C57BL/6 mice (Taconic) were used at 9-12 weeks of age. Animals were on a 12 hour light cycle with non-restricted food and water. The HFD animals were fed an HFD (D12492, 60% fat content; Research Diets) for 2 weeks. All animal procedures were approved by the Malmo/Lund Committee for Animal Experiment Ethics, Lund, Sweden. HFD mice fasted overnight (12 hours) were injected intra peritoneal (i.p.) with apoA-I peptides as listed above ([…] in PBS pH 7.4 for the 54-mer fragment and 6-7 mg/kg for other fragments in PBS, pH 7.4; control animals received NaCl) and this was followed by collection of serum samples at the indicated times. Glucose (50 mg/mouse) was injected i.p. 3 hours after treatments, followed by collection of serum samples at the indicated times. Blood glucose levels were measured (OnetouchUltra2; Lifescan), and insulin levels were assayed in serum using ELISA (Mercodia).

[4] = 7 mg/kg i.p., 120 minutes of the test

Row | Substance | glucose uptake, fold change versus control ([1]; apoA-I fragment, 60 minutes, FIGS. 4b and 8b) [fold] | helical content from molar ellipticity at 222 nm [2] [%] | increase of glucose-stimulated insulin secretion (AUC) versus control [3, 4] | reduction of total glucose (AUC) versus control [3, 4] | insulin secretion in glucose tolerance test (in words) ([3]; single i.p. injection 7 mg/kg, glucose load 3 hours later, FIG. 10c,d) | glucose uptake over basal/Control, repeated experiment ([1]; 2 μmol/l (60 μg/ml) POPC rHDL or 100 nmol/l insulin, 60 minutes, FIG. 7c) [fold] | glucose uptake over basal ([1]; 50 μg/ml rHDL (as apoA-I) or 100 nmol/l insulin, 1 hour, FIG. 1c, rHDL p=0.095) [fold] | increased glucose uptake ([1]; 2 h serum starved, 50 μg/ml (1.6 μmol/l) apoA-I or 100 nmol/l insulin, 1 hour, FIG. 1b) [fold]
1 | 190-243 polypeptide fragment: polypeptide fragment consisting of amino acids 190-243 of the full-length human apoA-I protein, C-terminal domain, 54-mer, recombinant (AEYHAKATEHLSTLSEKAKPALEDLRQGLLPVLESFKVSFLSALEEYTKKLNTQ; listed as Homo Sapiens) | 1.77±0.23 | 28 | about 60% | about 40% | significantly improved | – | – | –
2 | insulin | – | – | – | – | – | 2.4±1.0 | 2.4±1.0 | 2
